Results as given in US5616609A, “Carcinostatic compound and production thereof” (priority 1991, dated 1997).
Where two headings read alike, the source gives them in different places.

What was measured:
[1] = tested on: H-69 pulmonary cancer cells; assay: Inhibition of proliferation of human pulmonary cancer cells H-69 (Tests 2 and 4); assay type: cell-based; settings: pulmonary cancer H-69, RMP-1640 + 10% calf serum, 37° C.
Procedure: (§1) Cells of gastric cancer, pulmonary cancer, liver cancer and leukemia, which had been separated from human patients, were separately placed in portions of RMP-1640 medium containing 10% calf serum and then incubated at 37° C. for 4 days in a 5% CO2 -incubator to obtain a cell population of 10^4 /ml. To the cells of each cancer kind so cultured, stelleramacrin was added at varied concentrations, and the concentration (IC50) of each test compound at which proliferation of the human cancer cells was inhibited by 50% was deterimined.
as §1, with “separately placed on portions of” for “separately placed in portions of”, “so cultured, gnidimacrin or pimelea factor was added” for “so cultured, stelleramacrin was added”, “(IC50) of the test compound” for “(IC50) of each test compound”, “50% was determined.” for “50% was deterimined.”

Acute toxicity (LD50) = settings: in vivo; species and route not given
[2] = tested on: PC-7 pulmonary cancer cells; assay: Inhibition of proliferation of human pulmonary cancer cells PC-7 (Tests 2 and 4); assay type: cell-based; settings: pulmonary cancer PC-7, RMP-1640 + 10% calf serum, 37° C.
Procedure: as §1
as §1, with “separately placed on portions of” for “separately placed in portions of”, “so cultured, gnidimacrin or pimelea factor was added” for “so cultured, stelleramacrin was added”, “(IC50) of the test compound” for “(IC50) of each test compound”, “50% was determined.” for “50% was deterimined.”

[3] = tested on: LU-99 pulmonary cancer cells; assay: Inhibition of proliferation of human pulmonary cancer cells LU-99 (Tests 2 and 4); assay type: cell-based; settings: pulmonary cancer LU-99, RMP-1640 + 10% calf serum, 37° C.
Procedure: as §1
as §1, with “separately placed on portions of” for “separately placed in portions of”, “so cultured, gnidimacrin or pimelea factor was added” for “so cultured, stelleramacrin was added”, “(IC50) of the test compound” for “(IC50) of each test compound”, “50% was determined.” for “50% was deterimined.”

[4] = tested on: MKV-74 gastric cancer cells; assay: Inhibition of proliferation of human gastric cancer cells MKV-74 (Tests 2 and 4); assay type: cell-based; settings: gastric cancer MKV-74, RMP-1640 + 10% calf serum, 37° C.
Procedure: as §1
as §1, with “separately placed on portions of” for “separately placed in portions of”, “so cultured, gnidimacrin or pimelea factor was added” for “so cultured, stelleramacrin was added”, “(IC50) of the test compound” for “(IC50) of each test compound”, “50% was determined.” for “50% was deterimined.”

[5] = tested on: N-237 pulmonary cancer cells; assay: Inhibition of proliferation of human pulmonary cancer cells N-237 (Tests 2 and 4); assay type: cell-based; settings: pulmonary cancer N-237, RMP-1640 + 10% calf serum, 37° C.
Procedure: as §1
as §1, with “separately placed on portions of” for “separately placed in portions of”, “so cultured, gnidimacrin or pimelea factor was added” for “so cultured, stelleramacrin was added”, “(IC50) of the test compound” for “(IC50) of each test compound”, “50% was determined.” for “50% was deterimined.”

[6] = tested on: MKU-28 gastric cancer cells; assay: Inhibition of proliferation of human gastric cancer cells MKU-28 (Tests 2 and 4); assay type: cell-based; settings: gastric cancer MKU-28, RMP-1640 + 10% calf serum, 37° C.
Procedure: as §1
as §1, with “separately placed on portions of” for “separately placed in portions of”, “so cultured, gnidimacrin or pimelea factor was added” for “so cultured, stelleramacrin was added”, “(IC50) of the test compound” for “(IC50) of each test compound”, “50% was determined.” for “50% was deterimined.”

[7] = tested on: K-III gastric cancer cells; assay: Inhibition of proliferation of human gastric cancer cells K-III (Tests 2 and 4); assay type: cell-based; settings: RMP-1640 + 10% calf serum, 37° C.
Procedure: as §1
as §1, with “separately placed on portions of” for “separately placed in portions of”, “so cultured, gnidimacrin or pimelea factor was added” for “so cultured, stelleramacrin was added”, “(IC50) of the test compound” for “(IC50) of each test compound”, “50% was determined.” for “50% was deterimined.”

[8] = tested on: MKV-45 gastric cancer cells; assay: Inhibition of proliferation of human gastric cancer cells MKV-45 (Tests 2 and 4); assay type: cell-based; settings: gastric cancer MKV-45, RMP-1640 + 10% calf serum, 37° C.
Procedure: as §1
as §1, with “separately placed on portions of” for “separately placed in portions of”, “so cultured, gnidimacrin or pimelea factor was added” for “so cultured, stelleramacrin was added”, “(IC50) of the test compound” for “(IC50) of each test compound”, “50% was determined.” for “50% was deterimined.”

[9] = tested on: mouse leukemia cell P-388; assay: P-388 mouse leukemia, intraperitoneal transplant in BDF1 mice, survival (Test 1); assay type: in vivo; settings: 1 mg/kg, once a day for 5 days
Source text: The mouse leukemia cell P-388 was intraperitoneally transplanted to BDF1 mice in an amount of 1×10^6 cells per mouse. From the following day, each test drug was intraperitoneally administered to the mice once a day for 5 days. Each test group was compared in the number of survival days with a control group to determine an apothanasia rate.

[10] = tested on: PC-14 pulmonary cancer cells; assay: Inhibition of proliferation of human pulmonary cancer cells PC-14 (Tests 2 and 4); assay type: cell-based; settings: pulmonary cancer PC-14, RMP-1640 + 10% calf serum, 37° C.
Procedure: as §1
as §1, with “separately placed on portions of” for “separately placed in portions of”, “so cultured, gnidimacrin or pimelea factor was added” for “so cultured, stelleramacrin was added”, “(IC50) of the test compound” for “(IC50) of each test compound”, “50% was determined.” for “50% was deterimined.”

K-502 leukemia cells = assay: Inhibition of proliferation of human leukemia cells K-502 (Tests 2 and 4); assay type: cell-based; settings: leukemia K-502, RMP-1640 + 10% calf serum, 37° C.
Procedure: as §1
as §1, with “separately placed on portions of” for “separately placed in portions of”, “so cultured, gnidimacrin or pimelea factor was added” for “so cultured, stelleramacrin was added”, “(IC50) of the test compound” for “(IC50) of each test compound”, “50% was determined.” for “50% was deterimined.”

HLE liver cancer cells = assay: Inhibition of proliferation of human liver cancer cells HLE (Tests 2 and 4); assay type: cell-based; settings: RMP-1640 + 10% calf serum, 37° C.
Procedure: as §1
as §1, with “separately placed on portions of” for “separately placed in portions of”, “so cultured, gnidimacrin or pimelea factor was added” for “so cultured, stelleramacrin was added”, “(IC50) of the test compound” for “(IC50) of each test compound”, “50% was determined.” for “50% was deterimined.”

[11] = tested on: Lewis pulmonary cancer cells; assay: Lewis pulmonary cancer, hypodermic transplant in BDF1 mice (Test 3); assay type: in vivo, mouse (BDF1); settings: once a day for 5 days, vs control
Procedure: (§2) Hypodermically transplanted to induce solid cancer were Lewis pulmonary cancer cells to BDF1 mice in an amount of 1×10^6 cells per mouse, Clon 26 large bowel cancer cells to BALB/C mice in an amount of 5×10^5 cells per mouse and a 20% homogenate of B-16 melanoma solid cancer to BDF1 mice in an amount of 0.25 ml per mouse. From the following day of the transplantation, gnidimacrin and pimelea factor P2 were administered separately once a day for 5 days. Each test group was compared in apothanasia rate with a control group. The results on gnidimacrin and pimelea factor P2 are shown in Table 3 and Table 4, respectively.

[12] = tested on: solid cancer such as gastric cancer, pulmonary cancer, liver cancer; assay: Inhibiting action against solid cancer (summary statement); settings: liver cancer or the like
[13] = tested on: Colon 26 large bowel cancer; assay: Colon 26 large bowel cancer, hypodermic transplant in BALB/C mice (Test 3); assay type: in vivo, mouse (BALB/C); settings: once a day for 5 days, vs control
Procedure: as §2

B-16 melanoma = assay: B-16 melanoma, hypodermic transplant in BDF1 mice (Test 3); assay type: in vivo, mouse (BDF1); settings: once a day for 5 days, vs control
Procedure: as §2

[14] = tested on: Lewis pulmonary cancer cells; assay: Lewis pulmonary cancer in mice, intravenous administration; assay type: in vivo, mouse; settings: 0.06 mg/Kg
Meth A fibrosarcoma = Meth A fibrosarcoma solid cancer in male BALB/c mice, injection into the cancer (Test 5); assay type: in vivo, mouse (BALB/c); settings: 0.001 mg/Kg injected into solid cancer once a day for 5 days, 21st day
Procedure: Using laboratory animals, effects of gnidimacrin on solid cancer were studied. First, intradermally inoculated to male BALB/c mice (each group consisting of 6 mice, each having a weight of 17-21 g) was 0.01 ml of RPMI 1640 solution which contained 10% fetal serum and 1×10^5 cells/ml of Meth A fibrosarcoma. Seven days after the inoculation, solid cancer was formed. Into the solid cancer, gnidimacrin which had been dissolved in physiological saline containing 0.5% CMC, was administered at 0.001 mg/Kg by injection. That administration was conducted once a day for 5 days. On the 21st day from the inoculation of Meth A fibrosarcoma, the cancer was cut out and its weight was compared with that of a control group not administered with gnidimacrin. […] Namely, gnidimacrin inhibited the proliferation of the solid cancer by 81%.

Compound	IC50 ([1]; Homo sapiens, read-out: IC50) [µg/mL]	IC50 ([2]; Homo sapiens, read-out: IC50) [µg/mL]	IC50 ([3]; Homo sapiens, read-out: IC50) [µg/mL]	IC50 ([4]; Homo sapiens, read-out: IC50) [µg/mL]	IC50 ([5]; Homo sapiens, read-out: IC50) [µg/mL]	IC50 ([6]; Homo sapiens, read-out: IC50) [µg/mL]	IC50 ([7]; Homo sapiens, read-out: IC50) [µg/mL]	IC50 ([8]; Homo sapiens, read-out: IC50) [µg/mL]	IC50 ([10]; Homo sapiens, read-out: IC50) [µg/mL]	IC50 (K-502 leukemia cells; Homo sapiens, read-out: IC50) [µg/mL]	IC50 (HLE liver cancer cells; Homo sapiens, read-out: IC50) [µg/mL]	inhibiting action against solid cancer [12]	also measured
C=C(C)C12CC(COC(=O)c3ccccc3)C34OC5(OC1C3C1OC1(CO)C(O)C1(O)C(O)C(C)C(C(C)CCCCCCC5O)C14)O2 (single isomer, unassigned) [Stelleramacrin A]	10.2	5.1	> 10	> 10	5.3	0.2	0.1	0.8	8.4	10	> 10	–	LD50 (Acute toxicity (LD50)): 5 mg/kg; Average number of survival days ([9]; control group 8.08 days): 13.83 days; Apothanasia rate ([9]; survival days vs control): 71%
C=C(C)[C@]12C[C@@H](C)[C@@]34OC5(CCCCCCC[C@H](C)[C@H]6[C@H](C)[C@H](OC(=O)c7ccccc7)[C@@](O)([C@H](O)[C@@]7(CO)O[C@H]7[C@H]3[C@H]1O5)[C@@H]64)O2 [Pimelea factor P2, pimelea factor P2]	–	–	–	–	–	–	–	–	–	–	–	strong inhibiting action	Apothanasia rate ([11]; 0.1 mg/kg): 35.2%; IC50 [1]: 7 µg/mL; IC50 [2]: 1.7 µg/mL; IC50 [3]: 10 µg/mL; IC50 [4]: 10 µg/mL; IC50 [5]: 3.8 µg/mL; IC50 [6]: 0.01 µg/mL; Apothanasia rate ([13]; 0.05 mg/kg): 18.5%; IC50 [7]: 0.003 µg/mL; Apothanasia rate (B-16 melanoma; 0.1 mg/kg): 41.8%; IC50 [8]: 0.005 µg/mL; IC50 [10]: 3.2 µg/mL; IC50 (K-502 leukemia cells): 0.3 µg/mL; IC50 (HLE liver cancer cells): 10 µg/mL
C=C(C)[C@@]12C[C@@H](COC(=O)c3ccccc3)[C@@]34OC5(O[C@@H]1[C@@H]3[C@@H]1O[C@]1(CO)[C@@H](O)[C@@]1(O)[C@H]4[C@H]([C@H](C)[C@@H]1OC(=O)c1ccccc1)[C@H](C)CCCCCC[C@H]5O)O2 (single isomer, unassigned) [Gnidimacrin, gnidimacrin]	0.6	0.5	1	> 1	0.2	0.006	0.0006	0.0001	0.85	0.0025	2	strong inhibiting action	Apothanasia rate ([11]; 0.02 mg/kg): 40.0%; Apothanasia rate ([13]; 0.01 mg/kg): 26.8%; Apothanasia rate (B-16 melanoma; 0.02 mg/kg): 49.2%; Apothanasia rate [14]: 47.8%; average cancer weight (Meth A fibrosarcoma; control group 2.1 g): 0.4 g; inhibition of the proliferation of the solid cancer (Meth A fibrosarcoma; vs control): 81%
